In ChEMBL document CHEMBL4825752, “1, 2-Dihexadecanoyl-sn-glycero-3-phosphoethanolamin (DPPE), doxorubicin and folic acid conjugated micelles for cancer management in tumor bearing BALB/c mice” (Bioorg Med Chem Lett, 2021):

What was measured:
[1] = AUC(0 to t) in single iv dosed BALB/c mouse by HPLC analysis; assay type: ADME, organism-based; conditions: in vivo
[2] = AUC(0 to infinity) in single iv dosed BALB/c mouse by HPLC analysis; assay type: ADME, organism-based; design: time infinity, route intravenous; conditions: in vivo
[3] = AUMC(0 to t) in single iv dosed BALB/c mouse by HPLC analysis; assay type: ADME, organism-based; conditions: in vivo
[4] = AUMC(0 to infinity) in single iv dosed BALB/c mouse by HPLC analysis; assay type: ADME, organism-based; conditions: in vivo
[5] = Half life in single iv dosed BALB/c mouse by HPLC analysis; assay type: ADME, organism-based; conditions: in vivo
[6] = Mean residence time in single iv dosed BALB/c mouse by HPLC analysis; assay type: ADME, organism-based; conditions: in vivo
[7] = Biodistribution in liver of iv dosed tumor bearing BALB/c mouse; assay type: ADME, organism-based; conditions: in vivo
[8] = Biodistribution in kidney of iv dosed tumor bearing BALB/c mouse; assay type: ADME, organism-based; conditions: in vivo
[9] = Biodistribution in heart of iv dosed tumor bearing BALB/c mouse; assay type: ADME, organism-based; conditions: in vivo
[10] = Biodistribution in spleen of iv dosed tumor bearing BALB/c mouse; assay type: ADME, organism-based; conditions: in vivo
[11] = Toxicity in tumor bearing BABL/c mouse assessed as median survival time at 5 mg/kg, iv (reference value: 7.5 day); assay type: organism-based; conditions: in vivo, 180 h
[12] = Toxicity in rat liver assessed as microvesicular steatosis by histopathological analysis; assay type: tissue-based
[13] = Toxicity in rat liver assessed as hepatocytes degeneration by histopathological analysis
[14] = Biodistribution in blood of single iv dosed tumor bearing BALB/c mouse; assay type: ADME, organism-based; conditions: in vivo
[15] = Toxicity in rat heart assessed as myocardial cell degeneration by histopathological analysis; assay type: tissue-based
[16] = Toxicity in rat heart assessed as myocardial necrosis by histopathological analysis; assay type: tissue-based; conditions: in vivo
[17] = Toxicity in rat heart assessed as haemorrhage by histopathological analysis; assay type: tissue-based; conditions: in vivo
[18] = Toxicity in rat skeletal muscle assessed as widening of endomysium by histopathological analysis; assay type: tissue-based, Skeletal muscle tissue; conditions: in vivo
[19] = Toxicity in rat skeletal muscle assessed as infiltration of inflammatory cells by histopathological analysis; assay type: tissue-based, Skeletal muscle tissue
[20] = Toxicity in rat kidney assessed as epithelial degeneration by histopathological analysis; assay type: tissue-based; conditions: in vivo
[21] = Toxicity in rat kidney assessed as tubular degeneration by histopathological analysis; assay type: tissue-based; conditions: in vivo
[22] = Toxicity in rat kidney assessed as tubular necrosis by histopathological analysis; assay type: tissue-based; conditions: in vivo
[23] = Toxicity in rat kidney assessed as glomerular necrosis by histopathological analysis; assay type: tissue-based; conditions: in vivo
[24] = Toxicity in rat kidney assessed as congestion of glomeruli blood vessels by histopathological analysis; assay type: tissue-based; conditions: in vivo

SMILES: COc1cccc2c1C(=O)c1c(O)c3c(c(O)c1C2=O)C[C@@](O)(C(=O)CO)C[C@@H]3O[C@H]1C[C@H](N)[C@H](O)[C@H](C)O1 [DOXORUBICIN]
- AUC(0-t) [1]: 11400 ng·h/mL
- AUC(0-inf) [2]: 10400 ng·h/mL
- AUMCt [3]: 29.45 ug/ml.hr^2
- AUMC [4]: 30.25 ug/ml.hr^2
- t1/2 [5]: 2.09 h
- MRT [6]: 3.1 h
- Drug uptake [7]: Active
- Drug uptake [8]: Active
- Drug uptake [9]: Active
- Drug uptake [10]: Active
- Activity [11]: Non-Toxic
- MST [11]: 40 days
- Activity [12]: Toxic
- Activity [13]: Toxic
- Drug uptake [14]: Active
- Activity [15]: Toxic
- Activity [16]: Toxic
- Activity [17]: Toxic
- Activity [18]: Toxic
- Activity [19]: Toxic
- Activity [20]: Toxic
- Activity [21]: Toxic
- Activity [22]: Toxic
- Activity [23]: Toxic
- Activity [24]: Toxic
